The results in this text go back to patent US9000045B2, “CETP activity inhibitors” (Japan Tobacco Inc., priority 1997, dated 2015).

Each structure is given as a SMILES string.

For this assay, the target named is T1, CETP (Homo sapiens, UniProt P11597).
T1 sequence (P11597 18-493): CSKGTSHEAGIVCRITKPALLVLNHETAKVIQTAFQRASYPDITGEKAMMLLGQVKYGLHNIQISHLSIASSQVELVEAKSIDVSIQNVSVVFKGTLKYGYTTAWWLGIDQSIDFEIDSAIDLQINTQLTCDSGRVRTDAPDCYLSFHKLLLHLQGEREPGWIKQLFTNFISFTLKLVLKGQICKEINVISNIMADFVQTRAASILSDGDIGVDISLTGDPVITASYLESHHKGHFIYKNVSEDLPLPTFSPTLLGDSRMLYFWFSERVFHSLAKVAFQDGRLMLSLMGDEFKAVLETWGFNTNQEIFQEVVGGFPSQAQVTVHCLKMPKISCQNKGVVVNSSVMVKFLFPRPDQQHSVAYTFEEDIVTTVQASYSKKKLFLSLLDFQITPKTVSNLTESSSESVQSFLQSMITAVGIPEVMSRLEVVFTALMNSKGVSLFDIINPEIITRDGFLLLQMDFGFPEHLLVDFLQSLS
The assay can be described thus: In vitro CETP activity inhibitory effect in whole plasma. Set-up: Plasma containing [^3H]CE-HDL3 (600,000 dpm/ml) was prepared by adding donor lipoprotein obtained in the above (1) to plasma from healthy subjects; from tissue; host or cells: whole plasma of healthy subjects. Conditions: plasma from healthy subjects containing [3H]CE-HDL3, incubated 4 hours at 37° C.; read-out: CETP activity inhibition in whole plasma IC50. It counts as biochemical. On the procedure: The fraction thus obtained was dialyzed against a PBS solution [10 mM Na2HPO4/10 mM NaH2PO4/0.15 M NaCl/1 mM EDTA (pH 7.4)]. Then, tritium-labeled cholesterol (10 nM) (50.3 Ci/mM) was dissolved in 95% ethanol and added gradually to the above HDL3 fraction under stirring. The solution was incubated for 18 hours at 37° C. […] After incubation, KBr was added and specific gravity was adjusted to d=1.21 g/ml. […] A sample solution was prepared using a 1:1 solution of N-methylpyrrolidone and polyethyleneglycol 400 as a solvent. […] Based on the inhibition rate (%) of CETP activity, IC50 value of each sample was calculated.
The IC50 is the concentration that inhibits the measured activity by half. Turning to `CC(=O)N[C@H](Cc1ccccc1)C(=O)Sc1cc(Cl)c(Cl)cc1NC(=O)C1(C)CCCCC1` [Example 66-11], the IC50 came to 22 µM.

`CCNC(=O)Sc1cc(Cl)c(Cl)cc1NC(=O)C1(C)CCCCC1` [Example 66-53]: the IC50 amounted to 15 µM.

In the case of `CC(C)CCC1(C(=O)Nc2cc(Cl)c(Cl)cc2SC(=O)C(C)(C)C)CCC1` [Example 73], the IC50 was 37 µM.

For the molecule `CCNC(=O)Sc1ccccc1NC(=O)C1(CCC(C)C)CCCCC1` [Example 25-99], the IC50 was 6 µM.

Consider `CCSC(=O)Sc1ccc(C(F)(F)F)cc1NC(=O)C1(C)CCCCC1` [Example 25-92], for which the IC50 was determined as 19 µM.

On to `CC(=O)N[C@@H](C(=O)Sc1ccccc1NC(=O)C1(C)CCCCC1)c1ccccc1` [Example 25-38], for which the IC50 is 20 µM.

Turning to `COc1ccc(S)c(NC(=O)C2(C)CCCCC2)c1` [Example 19, N-(2-mercapto-5-methoxyphenyl)-1-methylcyclohexanecarboxamide], the IC50 was found to be 179 µM.

`COCC(=O)Sc1cc(Cl)c(Cl)cc1NC(=O)C1(CCC(C)C)CCCCC1` [Example 25-86]: the IC50 turned out to be 10 µM.

As for `CC1(C(=O)Nc2cccc(CC(=O)Sc3ccccc3NC(=O)C3(C)CCCCC3)c2)CCCCC1` [Example 25-30], the IC50 came to 21 µM.

In the case of `CC1(C(=O)Nc2ccccc2SC(=O)Cc2cccs2)CCCCC1` [Example 25-28], the IC50 was 21 µM.

Regarding `CC(C)(C)C(=O)Sc1cc(Cl)c(Cl)cc1NC(=O)C1(CC2CCCCC2)CCCCC1` [Example 71], the IC50 worked out at 4 µM.

Turning to `COC(=O)Sc1cc(Cl)c(Cl)cc1NC(=O)C1(C)CCCCC1` [Example 66-52], the IC50 came out at 46 µM.

For the molecule `CC1(C(=O)Nc2ccccc2SC(=O)c2cccnc2)CCCCC1` [Example 25-27], the IC50 was found to be 21 µM.

Turning to `CC(C)CCC1(C(=O)Nc2ccccc2SC(=O)c2ccc(C(=O)Sc3ccccc3NC(=O)C3(CCC(C)C)CCCCC3)cc2)CCCCC1` [Example 25-48], the IC50 turned out to be 23 µM.

For the molecule `CC(C)(C)C(=O)Sc1cc(Cl)c(Cl)cc1NC(=O)C1(CCC2CC2)CCCCC1` [Example 66-48], the IC50 was 11 µM.

Turning to `CC(C)CCC1(C(=O)Nc2cc(Cl)c(Cl)cc2SC(=O)C(C)(C)C)CCCCC1` [Example 50], the half-inhibitory concentration (IC50) amounted to 2 µM.

With `CC(C)CCC1(C(=O)Nc2ccccc2SC(=O)[C@@H]2CCCN2C(=O)c2ccccc2)CCCCC1` [Example 25-55], the IC50 was found to be 10 µM.

Consider `CCCCC[C@H]1CC[C@H](C(=O)Nc2cc(Cl)c(Cl)cc2SC(=O)C(C)(C)C)CC1` [Example 66-34], for which the IC50 amounted to 22 µM.

On to `CC(C)(C)C(=O)Sc1cc(Cl)c(Cl)cc1NC(=O)[C@@]12CCCC[C@@H]1CCC2` [Example 66-24], for which the IC50 worked out at 12 µM.

Consider `CC(C)[C@H]1CC[C@H](C(=O)Nc2cc(Cl)c(Cl)cc2SC(=O)C(C)(C)C)CC1` [Example 66-32], for which the IC50 was found to be 22 µM.

For `CCCCCC1(C(=O)Nc2cc(Cl)c(Cl)cc2SC(=O)C(C)(C)C)CCCCC1` [Example 69], the IC50 was 6 µM.

Regarding `CC(C)CCC1(C(=O)Nc2ccccc2SC(=O)c2cccnc2)CCCCC1` [Example 35], the IC50 was 4 µM.

As for `CC(C)CC1(C(=O)Nc2ccccc2S)CCCCC1` [Example 18, N-(2-mercaptophenyl)-1-isobutylcyclohexanecarboxamide], the IC50 was 6 µM.

Consider `CC(C)CCC1(C(=O)Nc2cc(Cl)c(Cl)cc2SC(=O)c2cccnc2)CCCC1` [Example 25-87], for which the IC50 amounted to 6 µM.

For the molecule `CC(C)C1(C(=O)Nc2cc(Cl)c(Cl)cc2SC(=O)C(C)(C)C)CCCCC1` [Example 66, S-[4,5-dichloro-2-(1-isopropylcyclohexanecarbonyl-amino)phenyl]2,2-dimethylthiopropionate], the IC50 was found to be 7 µM.

Regarding `CC1(C(=O)Nc2ccccc2SC(=O)Cc2ccc3ccccc3c2)CCCCC1` [Example 25-25], the IC50 came out at 24 µM.

Turning to `CC(C)CCC1(C(=O)Nc2ccccc2SC(=O)C2CCN(C)CC2)CCCC1` [Example 25-65], the IC50 came out at 9 µM.

`CC(C)(C)C(=O)Nc1ccccc1SC(=O)CCCc1ccccc1` [Example 25-12]: the IC50 was found to be 33 µM.

For the molecule `CC(C)CC1(C(=O)Nc2cc(Cl)c(Cl)cc2SC(=O)C(C)(C)C)CCCC1` [Example 66-49], the IC50 is 40 µM.

Take `CCCC(CCC)C(=O)Nc1ccccc1SSc1ccccc1NC(=O)C(CCC)CCC` [Example 5]: the IC50 amounted to 3 µM.

Regarding `CC(C)(C)C(=O)Sc1cc(Cl)c(Cl)cc1NC(=O)C1(C)CCCCC1` [Example 66-9], the IC50 was found to be 9 µM.

On to `CC1(C(=O)Nc2ccccc2SC(=O)c2ccccc2)CCCCC1` [Example 32], for which the half-inhibitory concentration (IC50) was 32 µM.

Take `CC(=O)N[C@@H](Cc1ccccc1)C(=O)Sc1cc(Cl)c(Cl)cc1NC(=O)C1(C)CCCCC1` [Example 66-10]: the IC50 was found to be 23 µM.

Take `CC(C)(C)C(=O)Nc1ccccc1SC(=O)Cc1ccccc1` [Example 31]: the IC50 came to 32 µM.

Consider `CC(=O)Nc1cccc(CC(=O)Sc2ccccc2NC(=O)C2(C)CCCCC2)c1` [Example 25-31], for which the IC50 came to 21 µM.

As to `CC1(C(=O)Nc2ccccc2S)CCCCC1` [Example 12], the IC50 amounted to 17 µM.

For the molecule `CC(C)CCC1(C(=O)Nc2ccccc2SSCC2CCCO2)CCCCC1` (centres unmarked) [Example 83, 2-tetrahydrofurylmethyl 2-(1-isopentylcyclohexane-carbonylamino)phenyl disulfide], the IC50 worked out at 5 µM.

With `CCCC1(C(=O)Nc2ccccc2S)CCCCC1` [Example 16], the IC50 amounted to 8 µM.

Take `CC(C)CCC1(C(=O)Nc2ccccc2S)CCCC1` [Example 13]: the IC50 was 5 µM.

As to `CC(C)(C)C(=O)Nc1ccccc1SSc1ccccc1` [Example 84, phenyl 2-pivaloylaminophenyl disulfide], the IC50 was found to be 158 µM.

Take `CC(C)(C)C(=O)Sc1cc(Cl)c(Cl)cc1NC(=O)C1CCCCC1` [Example 66-25]: the IC50 was determined as 19 µM.

Turning to `CC(C)(C)C(=O)Sc1cc(Cl)c(Cl)cc1NC(=O)CC1CCCCC1` [Example 66-28], the IC50 amounted to 18 µM.

As for `CC(=O)N1CCC[C@H]1C(=O)Sc1ccccc1NC(=O)C1(C)CCCCC1` [Example 25-37], the IC50 came out at 24 µM.

Regarding `CC(C)(C)C(=O)Nc1ccccc1SC(=O)Cc1ccccc1NC(=O)C1(C)CCCCC1` [Example 25-20], the IC50 turned out to be 48 µM.

For the molecule `O=C(Nc1ccccc1SSc1ccccc1NC(=O)c1cccs1)c1cccs1` [Example 4], the IC50 came to 175 µM.

Consider `CC(=O)N[C@@H](C)C(=O)Sc1ccccc1NC(=O)C1(CCC(C)C)CCCCC1` [Example 25-44], for which the IC50 was 9 µM.

As for `CC1(C(=O)Nc2ccccc2SC(=O)CC2CCCCC2)CCCCC1` [Example 25-16], the IC50 came out at 41 µM.

On to `CCNC(=O)Sc1cc(Cl)c(Cl)cc1NC(=O)C1(CCC(C)C)CCCCC1` [Example 25-104], for which the IC50 stood at 9 µM.

Regarding `CC(C)(C)C(=O)Nc1ccccc1CC(=O)Sc1ccccc1NC(=O)C1(C)CCCCC1` [Example 25-18], the IC50 stood at 19 µM.

`CCCCC1(C(=O)Nc2cc(Cl)c(Cl)cc2SC(=O)C(C)(C)C)CCCCC1` [Example 66-29]: the IC50 came out at 7 µM.

In the case of `CCC(=O)Sc1cc(Cl)c(Cl)cc1NC(=O)C1(CCC(C)C)CCCCC1` [Example 25-85], the IC50 came out at 7 µM.

Take `CC(C)CCC1(C(=O)Nc2cc(Cl)c(Cl)cc2SSc2cc(Cl)c(Cl)cc2NC(=O)C2(CCC(C)C)CCCC2)CCCC1` [Example 82-1]: the IC50 was 5 µM.

Turning to `CC(C)C(C(=O)Nc1cc(Cl)c(Cl)cc1SC(=O)C(C)(C)C)C1CCCCC1` (centres unmarked) [Example 66-38], the IC50 amounted to 26 µM.

As to `O=C(Nc1ccccc1SSc1ccccc1NC(=O)c1ccncc1)c1ccncc1` [Example 1-7], the IC50 was determined as 24 µM.

Regarding `CC(C)(C)C(=O)Sc1cc(Cl)c(Cl)cc1NC(=O)[C@H]1CC[C@H](C2CCCCC2)CC1` [Example 66-31], the IC50 was 27 µM.

With `CC(C)CCC1(C(=O)Nc2cc(Cl)c(Cl)cc2SC(=O)C2CCN(C)CC2)CCCCC1` [Example 25-78], the IC50 is 11 µM.

As for `CC(C)CC1(C(=O)Nc2cc(Cl)c(Cl)cc2SC(=O)C(C)(C)C)CCCCC1` [Example 66-42], the IC50 amounted to 10 µM.

As to `CC(=O)N[C@H](C(=O)Sc1ccccc1NC(=O)C1(C)CCCCC1)c1ccccc1` [Example 25-39], the IC50 came out at 22 µM.

With `COC(=O)Sc1ccccc1NC(=O)C1(CCC(C)C)CCCCC1` [Example 54], the IC50 worked out at 12 µM.

Turning to `CC(C)CCCC1(C(=O)Nc2cc(Cl)c(Cl)cc2SC(=O)C(C)(C)C)CCCCC1` [Example 66-43], the IC50 came out at 23 µM.

For the molecule `CC1(C(=O)Nc2ccccc2SC(=O)Cc2ccccc2Cl)CCCCC1` [Example 25-23], the IC50 was 25 µM.

With `CC(C)CCC1(C(=O)Nc2ccccc2SC(=O)c2ccccc2)CCCCC1` [Example 44], the IC50 stood at 23 µM.
